# Measurements reported in patent publication US9550728B2, “Thermo-responsive draw solute for forward osmosis and method for water desalination and purification using the same” (SEOUL NATIONAL UNIVERSITY R&DB FOUNDATION, priority 2011, dated 2017).
# Columns and labels:
# [1] = Measurement of transmittances of aqueous draw solute solutions according to temperature variation (UV/IR spectrometer); assay type: physicochemical
# Experimental: For this observation, the transmittances of aqueous solutions of the draw solutes were measured using a UV/IR spectrometer.
# [2] = Verification of reproducibility of forward osmosis experiments (repeated low/high temperature cycles); settings: 2.0 M nBu-DETA, positive = flow from brine to nBu-DETA solution
# Text: A draw solute for a forward osmosis process should be able to be continuously reused after the process. […] FIG. 26 is a graph showing changes in the flux of water during repeated experiments using 2.0 M nBu-DETA.
# In a conventional process using ammonium carbonate/ammonium hydroxide, recondensation is required to reuse recovered ammonia and carbon dioxide molecules. In contrast, in the three repeated cycles of forward osmosis using nBu-DETA as a draw solute, any special process for dissolution except stirring was not carried out but the solute having undergone a phase transition were dissolved when hot water was exchanged with cold water in the thermostatic bath. As a result, similar levels of fluxes were obtained, which can be seen from FIG. 26 and Table 9.
# [3] = Measurement of flows and fluxes of water in forward osmosis through cellulose acetate semi-permeable membrane (brine vs draw solution)
# Experimental: Referring to FIG. 11, the system has a structure in which glass tubes are arranged to face each other through a semi-permeable membrane. Unpurified water is arranged in one of the glass tubes and a draw solution is arranged in the other glass tube. After the glass tubes are placed in a temperature-controllable water bath, water desalination and purification experiments are conducted. Specifically, the experiments using LCST draw solutes are carried out in the order of low temperature (homogeneous phase) and high temperature (phase transition). The experiments using UCST draw solutes are carried out in the order of high temperature (homogeneous phase) and low temperature (phase transition). As the semi-permeable membrane, a cellulose acetate semi-permeable membrane is used. Specifically, the semi-permeable membrane includes a support layer composed of a polyester fiber coated with polyethylene and a dense layer composed of a cellulose triacetate fiber. The semi-permeable membrane is characterized by the ability to remove 95% or more of salts and low-molecular-weight materials.
# Forward osmosis experiments were conducted at laboratory level using the thermo-responsive draw solutes synthesized above. The fluxes and directivities of water at low/high temperatures were confirmed with varying concentrations of brines and the draw solutions.
# A stirrer was installed to maintain a uniform state of the solution in each glass tube and a thermostatic bath was installed for temperature control. After the temperature was maintained constant, the flux of water was measured. The amount of water flowing through the membrane was expressed in volume per unit area of the membrane and unit time (L/m^2h, LMH). The fluxes and directivities of water at low and high temperatures were measured at time points of each experiment. For better visual observation, a slight amount of dye was added to the system.
# [4] = aqueous solution of LCST draw solute at temperatures lower than the reference temperature
# [5] = aqueous solution of UCST draw solute at temperatures equal to or higher than the reference temperature
smiles,measurement,setting,value
CCCC(=O)NCCCN(C)CCCNC(=O)CCC [nBu-DAPMA],Transmittance,[1]; [4],100%
CCCC(=O)NCCN(C(C)C)C(C)C [nBu-DIPA],Transmittance,[1]; [4],100%
CCCC(=O)NCCN(CCNC(=O)CCC)C(=O)CCC [nBu-DETA],Flux (L/m^2h),"[2]; 18° C., 1 Cycle",0.61 L/m^2h
same,Flux (L/m^2h),"[2]; 18° C., 2 Cycle",0.71 L/m^2h
same,Flux (L/m^2h),"[2]; 18° C., 3 Cycle",0.71 L/m^2h
same,Flux (L/m^2h),"[2]; 70° C., 1 Cycle",−0.64 L/m^2h
same,Flux (L/m^2h),"[2]; 70° C., 2 Cycle",−0.79 L/m^2h
same,Flux (L/m^2h),"[2]; 70° C., 3 Cycle",−0.61 L/m^2h
same,Transmittance,[1]; [4],100%
same,Flux of water,"[3]; 0.5M nBu-DETA draw solution, 0.050M NaCl, 18 (±0.5)° C., flow direction NaCl→nBu-DETA",1.3 LMH
same,Flux of water,"[3]; 0.5M nBu-DETA, 0.10M NaCl, 18 (±0.5)° C., NaCl→nBu-DETA",0.90 LMH
same,Flux of water,"[3]; 0.5M nBu-DETA, 0.15M NaCl, 18 (±0.5)° C., NaCl→nBu-DETA",0.52 LMH
same,Flux of water,"[3]; 1.0M nBu-DETA, 0.10M NaCl, 18 (±0.5)° C., NaCl→nBu-DETA",1.5 LMH
same,Flux of water,"[3]; 1.0M nBu-DETA, 0.15M NaCl, 70 (±0.5)° C., nBu-DETA→NaCl",0.93 LMH
same,Flux of water,"[3]; 1.0M nBu-DETA, 0.20M NaCl, 18 (±0.5)° C., NaCl→nBu-DETA",0.77 LMH
same,Flux of water,"[3]; 1.0M nBu-DETA, 0.2M NaCl, 70 (±0.5)° C., nBu-DETA→NaCl",0.96 LMH
same,Flux of water,"[3]; 1.0M nBu-DETA, 0.30M NaCl, 18 (±0.5)° C., NaCl→nBu-DETA",0.52 LMH
same,Flux of water,"[3]; 1.0M nBu-DETA, 0.35M NaCl, 70 (±0.5)° C., nBu-DETA→NaCl",1.4 LMH
same,Flux of water,"[3]; 1.0M nBu-DETA, 0.5M NaCl, 70 (±0.5)° C., nBu-DETA→NaCl",1.8 LMH
same,Flux of water,"[3]; 1.6M nBu-DETA, 0.15M NaCl, 70 (±0.5)° C., nBu-DETA→NaCl",1.2 LMH
same,Flux of water,"[3]; 1.6M nBu-DETA, 0.25M NaCl, 70 (±0.5)° C., nBu-DETA→NaCl",1.2 LMH
same,Flux of water,"[3]; 1.6M nBu-DETA, 0.35M NaCl, 70 (±0.5)° C., nBu-DETA→NaCl",1.3 LMH
same,Flux of water,"[3]; 1.6M nBu-DETA, 0.5M NaCl, 70 (±0.5)° C., nBu-DETA→NaCl",1.2 LMH
same,Flux of water,"[3]; 2.0M nBu-DETA, 0.05M NaCl, 70 (±0.5)° C., flow direction nBu-DETA→NaCl",−0.071 LMH
same,Flux of water,"[3]; 2.0M nBu-DETA, 0.1M NaCl, 70 (±0.5)° C., nBu-DETA→NaCl",0.36 LMH
same,Flux of water,"[3]; 2.0M nBu-DETA, 0.15M NaCl, 70 (±0.5)° C., nBu-DETA→NaCl",0.75 LMH
same,Flux of water,"[3]; 2.0M nBu-DETA, 0.20M NaCl, 18 (±0.5)° C., NaCl→nBu-DETA",1.7 LMH
same,Flux of water,"[3]; 2.0M nBu-DETA, 0.25M NaCl, 70 (±0.5)° C., nBu-DETA→NaCl",0.96 LMH
same,Flux of water,"[3]; 2.0M nBu-DETA, 0.35M NaCl, 70 (±0.5)° C., nBu-DETA→NaCl",1.2 LMH
same,Flux of water,"[3]; 2.0M nBu-DETA, 0.40M NaCl, 18 (±0.5)° C., NaCl→nBu-DETA",0.65 LMH
same,Flux of water,"[3]; 2.0M nBu-DETA, 0.5M NaCl, 70 (±0.5)° C., nBu-DETA→NaCl",1.4 LMH
same,Flux of water,"[3]; 2.0M nBu-DETA, 0.60M NaCl, 18 (±0.5)° C., NaCl→nBu-DETA",0.26 LMH
CCN(CC)CCNC(=O)C(C)C [iBu-DEEA],Transmittance,[1]; [4],100%
CCCCNC(=O)CC [N-BPA],Transmittance,[1]; [4],100%
CCCCCOCC(C)O (stereo not drawn) [PNP],Transmittance,[1]; [4],100%
CCCCC(=O)NCCCN(C)CCCNC(=O)CCCC [Val-DAPMA],Transmittance,[1]; [4],100%
CCCCCCOCCOCCO [DEH],Transmittance,[1]; [4],100%
same,Flux (LMH),"[3]; 2 M DEH, 0.025 M NaCl, 40 (+0.5)° C., flow direction DEH→NaCl",1.6422 LMH
same,Flux (LMH),"[3]; 2 M DEH, 0.05 M NaCl, 40 (+0.5)° C., DEH→NaCl",1.1 LMH
same,Flux (LMH),"[3]; 2 M DEH, 0.1 M NaCl, 40 (+0.5)° C., DEH→NaCl",0.71 LMH
same,Flux (LMH),"[3]; 2 M DEH, 0.15 M NaCl, 40 (+0.5)° C., DEH→NaCl",0.36 LMH
same,Flux (LMH),"[3]; 4.0 M DEH, 0.60 M NaCl, 18 (±0.5)° C., flow direction NaCl→DEH",0.29 LMH
CC(C)C(N)=O [IBAm],Transmittance,[1]; [5],100%
CC(C)C(=O)O [IBA],Transmittance,[1]; [5],100%
OCCOc1ccccc1 [EGPE],Transmittance,[1]; [5],100%
same,Flux of water from EGPE to NaCl,"[3]; 6.4 M EGPE, 0.15 M brine, 5° C. (phase transition)",0.036 LMH
same,Flux of water from NaCl to EGPE,"[3]; 6.4 M EGPE, 0.3 M brine, 50° C.",0.14 LMH
CCCCC(=O)NCCN(CC)CC [Val-DEEA],Transmittance,[1]; [4],100%
